Patent US20250376466A1, “ESTER COMPOUNDS AND USE THEREOF” (NANJING REJU THERAPEUTICS, CO., LTD., priority 2022, published 2025)

Tests used:
[1] = tested on: normal and senescent A549 cells; assay: Senescent cell clearance index (senolytic index); assay type: cell-based, human; details: higher index = greater specificity
Description: (§1) In this example, human non-small cell lung cancer cell line (A549 cells), human embryonic lung fibroblast cell line (IMR90 cells), human retinal pigment epithelial cells (RPE cells), mouse chondrocytes, and mouse skin fibroblasts were selected. The cells above were induced to obtain senescent cells by etoposide (10 μM). The effect of the target compounds RZ001-RZ006 and RZ201 on the viability of normal and senescent cells above was detected, thereby evaluating the specific killing effect of the prodrugs RZ001-RZ006 and RZ201 on senescent cells above.
(§2) Briefly, senescent and normal cells above were selected and plated separately (96-well plates). After adding the compounds RZ001-RZ006 and RZ201 (concentration: 1 μM) for 72 hours, CellTiter-Glo® Luminescent Cell Viability Assay Kit (Promega) was used to detect cell viability, and the results were shown in FIGS. 2A to 2E.
Furthermore, the senescent cell clearance index (senolytic index) was also calculated for both normal and senescent A549 cells, as shown in Table 4. A higher index indicates greater specificity in eliminating senescent cells and better safety.

[2] = tested on: Alzheimer's disease; assay: APP×PS1 transgenic mouse model of Alzheimer's disease; assay type: in vivo; details: intraperitoneal injection, twice a week, 11 consecutive weeks; cerebral cortex; FIG. 8
Description: In this example, the efficacy of the compounds of the present disclosure was tested on Alzheimer's disease in an animal model of Alzheimer's disease. Briefly, a transgenic mouse model of APP×PS1 (purchased from Cyagen Biosciences) was selected and the compound of the present disclosure was administered by intraperitoneal injection for 11 consecutive weeks, twice a week. Alterations in amyloid in the cerebral cortex of the mice were observed.

[3] = tested on: renal fibrosis; assay: Renal fibrosis animal model (ureter ligation); assay type: in vivo, mice; details: intraperitoneal (IP) injection from 2nd week of modelling; FIG. 11
Description: In this example, the efficacy of the compound of the present disclosure was tested on renal fibrosis in an animal model of renal fibrosis. Briefly, C57BL/6J mice, male, 7 to 8 weeks old, were used. The mice were anaesthetized, made to lie supine on a foam board, and disinfected with iodophor, and a longitudinal incision was made in the skin in the middle of the lower abdomen to locate the white line of the abdominal muscle, where the abdominal muscle, fascia and peritoneal layer were dissected. After exposing the surgical field, the kidneys were exposed by pushing the stomach and mesentery of the mice to the right side with a gauze soaked with saline. The model of renal fibrosis was constructed by locating the transparent ureter from the renal pelvis along the renal artery, separating the left ureter, ligating the upper ⅓ of the left ureter, suturing the incision layer by layer, and finally disinfecting with iodophor. Dosing via intraperitoneal injection was started from the 2nd week of modelling. At the end of the experiment, the mouse serum was collected and kidney tissues were taken for Masson staining index assay.

[4] = tested on: diabetic retinopathy; assay: Mouse model of diabetic retinopathy (STZ), Evans blue penetration; assay type: in vivo; details: intravitreal (IVT), 1 μL of 200 μM at 8 and 9 weeks after STZ; Evans blue at 10 weeks; FIG. 4
Description: The efficacy of the compounds of the present disclosure was studied in a mouse model of diabetic retinopathy by multiple administrations of streptozotocin (STZ). C57BL/6J mice at 6 to 7 weeks were weighed and their baseline blood glucose was measured (Sino). STZ (Sigma-Aldrich) was injected intraperitoneally into the mice at 55 mg/Kg for five consecutive days. Age-matched controls were injected with buffer only. Blood glucose was measured again one week after the last STZ injection. 1 μL of the test compound (200 μM, a suspension formulated in 0.015% polysorbate 80, 0.2% sodium phosphate, 0.75% sodium chloride, pH 7.2) was injected intravitreally into the STZ-treated diabetic C57BL/6J mice at 8 and 9 weeks after STZ administration. 10 weeks after STZ treatment, the retinal Evans blue penetration assay was performed.

[5] = tested on: osteoarthritis; assay: Osteoarthritis animal model; assay type: in vivo, mice; details: intra-articular injection; FIG. 7
Description: In this example, the efficacy of the compounds of the present disclosure was tested on osteoarthritis in an osteoarthritis animal model.
The osteoarthritis animal model was constructed by the following steps. The mice were anesthetized with isoflurane, and fixed. The hair on the right hind limb of the mice was shaved and the skin was disinfected with alcohol, and the skin of the joints was cut. Under an optical microscope, the inside of the right knee joint was incised longitudinally with a blade, without cutting the patellar ligament. The patellar ligament was pulled to one side with constant hemostasis by compression with sterile cotton swabs such that the joint cavity was fully exposed. Saline was added dropwise in time to avoid the drying up of the joint cavity. The excess muscle tissue was gently separated with a blunt forceps to expose the meniscus ligament. The anterior cruciate ligament was found in the depth of the joint cavity and cut with micro scissor. Then the wound was disinfected with penicillin solution, the muscle was sutured with sterile needle and thread, and the skin tissue was finally sutured. The efficacy of the drug was determined by intra-articular injection administration. At the endpoint of the test, continued pain threshold of the plantar was detected, and the bone joints were stained with safranin fast green.

[6] = tested on: aging skin; assay: Aging skin in naturally aging mouse model; assay type: in vivo; details: skin application twice a week, 6 consecutive weeks; aged female mice (22 months old); FIG. 10
Description: In this example, aged female C57bl/6J mice (22 months old) were used. The drug was administered by skin application at twice a week for 6 consecutive weeks.

[7] = tested on: idiopathic pulmonary fibrosis; assay: Bleomycin idiopathic pulmonary fibrosis animal model; assay type: in vivo, SD rats; details: intraperitoneal (IP) 5 mg/kg, 3 consecutive weeks from day 7; Day 28; FIG. 6
Description: In this example, the efficacy of the compounds of the present disclosure was tested on idiopathic pulmonary fibrosis in an idiopathic pulmonary fibrosis animal model. Briefly, anesthetized 6-week-old SD rats were fixed on a foam board with medical tape. Firstly, the skin on the surface of the trachea was cut with surgical scissors to fully expose the trachea, and a 100-microlitre micro-syringe containing a certain volume of bleomycin (BLM 5 mg/kg) solution drawn based on the body weight of the rat was inserted into the trachea through the oral cavity to administer by slow bolus injection. After administration of the BLM solution, the foam plate was immediately rotated and shaken to distribute the BLM solution as evenly as possible in the lung tissue. Then the skin on the surface of the trachea was sutured with surgical sutures and about 0.5 to 1.0 mL of penicillin solution was dripped onto the epidermis to prevent infection of the surgical wound. After the 7th day of modelling, the compound solution of the present disclosure was administered via intraperitoneal (IP) injection (5 mg/kg) according to the weight of the rat for 3 consecutive weeks. Rats were euthanized by carbon dioxide at Day 28, the lung tissues were removed, the left alveolar lavage fluid was collected for white blood cell (WBC) counting, the right lung tissue portion was used for hydroxyproline (HYP) assay, and the remaining lung tissues were stained for pathology by H&E staining and Masson staining.

[8] = tested on: wet-age-related macular degeneration (CNV); assay: CNV animal model of wet age-related macular degeneration; assay type: in vivo, mice; details: intravitreal (IVT); laser CNV model; FIG. 5
Description: In this example, the efficacy of the compounds of the present disclosure was tested on wet-age-related macular degeneration in a CNV animal model.
Male mice were administered 0.5% probacaine hydrochloride (Alcon) for local anesthesia, and 1% tropicamide to dilate the pupils of the mice. Laser cauterization was performed using a laser photocoagulator (Novus Varia, LUMENIS) with a slit lamp delivery system. And artificially torn adherent glass coverslips were used as contact lenses. Bleeding spots caused by laser were not included in the statistical data.

[9] = tested on: hepatic fibrosis; assay: CCl4 mouse model of hepatic fibrosis; assay type: in vivo, mice; details: intraperitoneal (IP) injection twice a week from third week of modelling; FIG. 9
Description: In this example, the efficacy of the compounds of the present disclosure was tested on hepatic fibrosis in an animal model of hepatic fibrosis. Briefly, C57BL/6N mice, male, 7 to 8 weeks old, 24 to 28 g of body weight, were used. The mouse model of hepatic fibrosis was induced by intraperitoneal injection of CCl4 solution at a dosage of 1 mL/kg, with a dosing frequency of 2 times/week, and a modelling cycle of 6 weeks. Dosing via intraperitoneal injection was started from the third week of modelling twice a week. At the end of the test, serum was collected, and liver tissue was taken for Masson staining index assay.

[10] = tested on: senescent A549 cells, IMR90 cells, RPE cells, mouse chondrocytes, mouse skin fibroblasts; assay: Cell viability of senescent cells (CellTiter-Glo); assay type: cell-based, human; details: 1 μM, 72 hours; etoposide (10 μM)-induced senescent cells; FIGS. 2A to 2E
Description: as §1, §2

[11] = tested on: normal A549 cells, IMR90 cells, RPE cells, mouse chondrocytes, mouse skin fibroblasts; assay: Cell viability of normal cells (CellTiter-Glo); assay type: cell-based, human; details: 1 μM, 72 hours, FIGS. 2A to 2E
Description: as §1, §2

Which “senescent cell clearance index (Senolytic Index)” value (shortened to “senescent cell clearance index”) [1] does the source give for CCCC(=O)OCOC(=O)c1nc(N2CCc3cccc(C(=O)Nc4nc5ccccc5s4)c3C2)ccc1-c1cnn(CC23CC4CC(CC(C4)C2)C3)c1C [RZ004] here?
Its value is “B (B represents 100 to 200)”.

Which “senescent cell clearance index” value [1] does the source give for Cc1c(-c2ccc(N3CCc4cccc(C(=O)Nc5nc6ccccc6s5)c4C3)nc2C(=O)OCOC(=O)OC(C)C)cnn1CC12CC3CC(CC(C3)C1)C2 [RZ002] here?
Its value is “B (B represents 100 to 200)”.

What about the “Aβ42 pathogenic protein indicators” value [2] of the same molecule?
Its value is “statistically significant improvements”.

And the “pathology (kidney, Masson staining)” value [3]?
Its value is “statistically significant improvements”.

And the “serum creatinine (Cr) levels” value [3]?
The value was “statistically significant improvements”.

And the “serum urea nitrogen (BUN) levels” value [3]?
The value was “statistically significant improvements”.

What about the “vascular permeability in both the retinal and choroidal vascular leakage” value [4] of the same molecule?
Its value is “improved vascular permeability”.

What about the “pathology scores of safranin fast green staining” value [5] of the same molecule?
The value was “statistically significant improvements”.

And the “plantar mechanical pain threshold” value [5]?
The value was “statistically significant improvements”.

And the “epidermal thickness scores of the skin” value [6]?
The value was “statistically significant improvements”.

What about the “HYP (hydroxyproline, lung tissue)” value [7] of the same molecule?
Its value is “statistically significant improvements”.

What about the “WBC (white blood cell count, alveolar lavage fluid)” value [7] of the same molecule?
The value was “statistically significant improvements”.

What about the “pathology scores (H&E and Masson staining, lung)” value [7] of the same molecule?
Its value is “statistically significant improvements”.

What about the fluorescence intensity indicators [8] of the same molecule?
Its fluorescence intensity indicators is “statistically significant improvements”.

What about the “pathology scores (liver, Masson staining)” value [9] of the same molecule?
The value was “statistically significant improvements”.

What about the “serum alanine aminotransferase (ALT) levels” value [9] of the same molecule?
The value was “statistically significant improvements”.

What about the “serum aspartate aminotransferase (AST) levels” value [9] of the same molecule?
The value was “statistically significant improvements”.

With Cc1c(-c2ccc(N3CCc4cccc(C(=O)Nc5nc6ccccc6s5)c4C3)nc2C(=O)OCCN2CCOCC2)cnn1CC12CC3CC(CC(C3)C1)C2 [RZ011] as the molecule, how does the “senescent cell clearance index” value [1] read?
The value was “F (F represents less than 10)”.

Which “senescent cell clearance index” value [1] does the source give for Cc1c(-c2ccc(N3CCc4cccc(C(=O)Nc5nc6ccccc6s5)c4C3)nc2C(=O)OC(C)OC(=O)C(C)C)cnn1CC12CC3CC(CC(C3)C1)C2 (stereo not drawn) [RZ009] here?
Its value is “B (B represents 100 to 200)”.

With Cc1c(-c2ccc(N3CCc4cccc(C(=O)Nc5nc6ccccc6s5)c4C3)nc2C(=O)OCOC(=O)[C@@H](N)C(C)C)cnn1CC12CC3CC(CC(C3)C1)C2 [RZ301] as the molecule, how does the “senescent cell clearance index” value [1] read?
Its value is “B (B represents 100 to 200)”.

With CCC(=O)OC(OC(=O)c1nc(N2CCc3cccc(C(=O)Nc4nc5ccccc5s4)c3C2)ccc1-c1cnn(CC23CC4CC(CC(C4)C2)C3)c1C)C(C)C (stereo not drawn) [RZ007] as the molecule, how does the “senescent cell clearance index” value [1] read?
Its value is “B (B represents 100 to 200)”.

Which “senescent cell clearance index” value [1] does the source give for Cc1c(-c2ccc(N3CCc4cccc(C(=O)Nc5nc6ccccc6s5)c4C3)nc2C(=O)OC(C)OC(=O)OC(C)C)cnn1CC12CC3CC(CC(C3)C1)C2 (stereo not drawn) [RZ010] here?
Its value is “C (C represents 50 to 100)”.

How did the “senescent cell clearance index” value [1] turn out when CCOC(=O)OCOC(=O)c1nc(N2CCc3cccc(C(=O)Nc4nc5ccccc5s4)c3C2)ccc1-c1cnn(CC23CC4CC(CC(C4)C2)C3)c1C [RZ006] was run?
The value was “B (B represents 100 to 200)”.

With CCOC(=O)c1nc(N2CCc3cccc(C(=O)Nc4nc5ccccc5s4)c3C2)ccc1-c1cnn(CC23CC4CC(CC(C4)C2)C3)c1C [RZ202] as the molecule, how does the “senescent cell clearance index” value [1] read?
Its value is “F (F represents less than 10)”.

With Cc1c(-c2ccc(N3CCc4cccc(C(=O)Nc5nc6ccccc6s5)c4C3)nc2C(=O)OCOC(=O)C(C)(C)C)cnn1CC12CC3CC(CC(C3)C1)C2 [RZ003] as the molecule, how does the “senescent cell clearance index” value [1] read?
Its value is “B (B represents 100 to 200)”.

How did the “senescent cell clearance index” value [1] turn out when CCCCOC(=O)c1nc(N2CCc3cccc(C(=O)Nc4nc5ccccc5s4)c3C2)ccc1-c1cnn(CC23CC4CC(CC(C4)C2)C3)c1C [RZ008] was run?
Its value is “F (F represents less than 10)”.

What does the source list for Cc1c(-c2ccc(N3CCc4cccc(C(=O)Nc5nc6ccccc6s5)c4C3)nc2C(=O)O)cnn1CC12CC3CC(CC(C3)C1)C2 [Compound A-1331852, reference compound]?
cytotoxicity against senescent cells (cell viability) [10]: killing senescent cells; senescent cell clearance index (Senolytic Index) [1]: D (D represents 30 to 50); cytotoxicity against normal cells (cell viability) [11]: significant cytotoxicity against normal cells

With CC(=O)OCOC(=O)c1nc(N2CCc3cccc(C(=O)Nc4nc5ccccc5s4)c3C2)ccc1-c1cnn(CC23CC4CC(CC(C4)C2)C3)c1C [RZ005] as the molecule, how does the “senescent cell clearance index” value [1] read?
The value was “B (B represents 100 to 200)”.
